Measured values: PubChem BioAssay AID179 (DTP/NCI, 2004)
The source made the active and inactive calls.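 Rule for the calls: active = compounds giving half or more protection of infected cells from virus-caused growth loss, again on retest; inactive = the rest.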

Tested on: CEM cells HIV-1 protection, formazan growth assay
Assay: NCI AIDS Antiviral Assay
Conditions: for IC50: measured here: growth of uninfected CEM cells
Method in brief: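 Category rules: moderately active means at least 50% protection on retest, and confirmed active means 100% protection reproducibly. The underlying data came from a formazan growth assay in HIV-1-infected CEM cells.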

SMILES | EC50 | IC50 | outcome
CN/N=C(/CCN1CCCC1)CC(c1ccccc1)c1c(O)c2ccccc2oc1=O (stereo unspecified) | > 93.3 µM | 74.1 µM | –
CNC(=S)NNc1ncnc2c1ncn2-c1ccc(C)cc1 | > 200 µM | 57.5 µM | –
Fc1ccccc1C1SCc2nc3ccccc3n21 (stereo unspecified) | 11 µM | 38.9 µM | –
CCOC(=O)c1ccc2c(=O)n3c(C(=O)OCC)ccc3c(=O)n12 | 162 µM | > 200 µM | –
CN(CCCNc1ccc2ncn3c4ccccc4c(=O)c1c23)CCCN1C(=O)c2cccc3cc([N+](=O)[O-])cc(c23)C1=O | 0.01 µM | 0.0316 µM | –
O=S(=O)(CC#CCO)c1ccc2ccccc2c1 | – | – | inactive
C1CCN2CC34CC(CC5CCCN(C6CCCC3N6)C54)C2C1 (stereo unspecified) | > 309 µM | > 309 µM | –
CC12CCCC1C1CC=C3CC(SC4CCC5(C)C(=CCC6C7CCCC7(C)CCC65)C4)CCC3(C)C1CC2 (stereo unspecified) | > 200 µM | > 200 µM | –
C/C(C=O)=C\c1ccc([N+](=O)[O-])cc1 | > 135 µM | 75.9 µM | –
C[C@@]1(C(=O)O)CCC[C@@]2(C)C1[C@H](OC(=O)c1ccccc1)CC1CC3CC12CC[C@@]3(C)O (stereo partly specified) | > 282 µM | 58.9 µM | –
O=C1NC2Cc3ccccc3C(C2)O1 (stereo unspecified) | > 200 µM | > 200 µM | –
O=C(OC1C=C=CS(=O)(=O)CC#C/C=C\1)c1cnc2ccccc2n1 (stereo unspecified) | > 200 µM | 102 µM | –
CCOC(=O)c1c(-c2ccccc2)c(C(OC(c2ccccc2)c2c(-c3ccccc3)c(C(=O)OCC)n3ccccc23)c2ccccc2)c2ccccn12 (stereo unspecified) | > 5.25 µM | > 5.25 µM | –
N=c1n(CC(=O)NC23CC4CC(CC(C4)C2)C3)c2ccccc2n1CC(=O)NC12CC3CC(CC(C3)C1)C2 | > 200 µM | 3.72 µM | –
c1c(N2CCOCC2)ssc1=[N+]1CCOCC1 | – | – | inactive
O=[N+]([O-])CC1CCCCC1O (stereo unspecified) | > 200 µM | 115 µM | –

SMILES | EC50 | IC50 | outcome
O=C(NCCCN1CCN(CCCNC(=O)Nc2cc(Cl)ccc2Cl)CC1)Nc1cc(Cl)ccc1Cl | > 0.955 µM | > 0.955 µM | –
COc1cc([N+](=O)[O-])ccc1NC(=O)C(F)(F)F | > 200 µM | 57.5 µM | –
O=c1c([Se]c2coc3ccccc3c2=O)coc2ccccc12 | > 10.2 µM | > 10.2 µM | –
COC(=O)C1CCC(=S)N1C(=O)c1ccccc1 (stereo unspecified) | > 200 µM | > 200 µM | –
COC(=O)c1cccc(OC)c1C#Cc1c(OC)cccc1OC | > 200 µM | 21.9 µM | –
CCCCCCCCCC[C@@H](OC(C)=O)[C@@H]1CC[C@@H]([C@@H]2CC[C@@H]([C@@H](O)CC#C/C=C/CCCCCCC[C@@]3(Sc4ccccc4)C[C@H](C)OC3=O)O2)O1 | > 200 µM | 182 µM | –
COc1ccc2c(c1)CSC(c1ccccc1)C2=O (stereo unspecified) | > 97.7 µM | 55 µM | –
Cc1c(NC(=S)NC(=O)c2ccc([N+](=O)[O-])cc2)c(=O)n(-c2ccccc2)n1C | – | – | inactive
CC1=C(C(=O)NCc2ccccc2)C(c2ccc([N+](=O)[O-])cc2)C(C(=O)NCc2ccccc2)=C(C)N1 | > 14.5 µM | > 14.5 µM | –
Clc1nc(Cl)nc(Nc2ccccc2Cl)n1 | > 200 µM | 97.7 µM | –
CN(C)/N=C/c1cn(C)c(=O)n(C)c1=O | > 200 µM | > 200 µM | –
O=S(=O)(CC(Cl)c1ccccc1)c1nc2ccccc2s1 (stereo unspecified) | > 200 µM | 2.14 µM | –
Nc1cnc(N2CCN(c3ncc(N)cc3N)CC2)c(N)c1 | > 95.5 µM | 77.6 µM | –
CCc1n[nH]c(=O)n1CC | > 200 µM | > 200 µM | –
NS(=O)(=O)c1ccc(CNC(=O)c2ccccc2SC(=O)CCC[n+]2ccccc2)cc1 | 4.79 µM | 13.8 µM | –
CSc1c2c([nH]c(=O)c1C#N)-c1ccccc1CC2 | > 200 µM | 166 µM | –
